Measurements published in the SangsterLogP compilation.

| SMILES | logP |
| --- | --- |
| CNC12CCCCC1Cc1cc(OC)ccc12 (stereo not given) | 3.51 |
| NC12CCC(CO)CC1Cc1ccccc12 (stereo not given) | 0.93 |
| CNC12CCCCC1Cc1ccccc12 (stereo not given) | 3.37 |
| CNC12CCCCCC1Cc1ccccc12 (stereo not given) | 3.77 |
| CNC12CCC(CO)CC1Cc1ccccc12 (stereo not given) | 1.41 |
| CNC12CC=CCC1c1ccccc1C2 (stereo not given) | 3.28 |
| CNCC1CCC2(NC)c3ccccc3CC2C1 (stereo not given) | 2.48 |
| CNC12CCCCC1c1ccccc1C2 (stereo not given) | 3.43 |
| C=C1c2ccccc2C2(NC)CCCCC12 (stereo not given) | 3.79 |
| CNC12CCCCC1Cc1ccc(OC)cc12 (stereo not given) | 3.54 |
| CNC12c3ccccc3CC1CCCC2C (stereo not given) | 3.44 |
| NC12CCCCC1c1ccccc1C2 (stereo not given) | 2.94 |
| CCNC12c3ccccc3CC1CCCC2C (stereo not given) | 3.8 |
| NC12CCCC1Cc1ccccc12 (stereo not given) | 2.58 |
| CNC12CCC(CN)CC1Cc1ccccc12 (stereo not given) | 1.84 |
